In PMC10812672, “Short Antimicrobial Peptide Derived from the Venom Gland Transcriptome of Pamphobeteus verdolaga Increases Gentamicin Susceptibility of Multidrug-Resistant Klebsiella pneumoniae” (Antibiotics, 2023):
Ends that are not written are not given here.

Experiments:
[1] = tested on: human red blood cells (hRBCs); test: Hemolytic activity; format: cell-based
Method: (§1) The cytotoxicity of PvAMP66 was assessed in vitro against human red blood cells (hRBCs) and human peripheral blood mononuclear cells (hPBMCs) using concentrations of 1.56–200 µM. At the highest concentration, PvAMP66 induced 60% hemolysis in human erythrocytes (Figure 3a), and a decrease in viability of approximately 40% in the hPBMCs (Figure 3b). […] Ratios between CC50 or HC50, and the IC50 values registered for the bacterial strains, indicate that PvAMP66 has higher selectivity for interacting with prokaryotic membranes (Table 4).
Human red blood cells (hRBCs) were obtained from the Blood Bank of the School of Microbiology of the University of Antioquia in Medellín, Colombia. Ten mL of hRBCs were diluted in 10 mL of PSB pH 7.20, mixed by inversion, and centrifuged five times at 4 °C, 1000× g for 10 min (Universal 32 R, Hettich Group, Kirchlengern, Westphalia, Germany). […] Then, the supernatant was transferred to 96-well flat bottom culture plates without transferring of the RBC pellet, and hemoglobin release was measured at 420 nm (Multiskan SkyHigh, ThermoFisher Scientific, Waltham, MA, USA). All peptides were evaluated in three independent assays. The hemolysis percentage was calculated as follows: Hemolysis %=AbsPEPTIDE−Median AbsPBS/Median AbsTRITON−Median AbsPBS×100

[2] = tested on: human peripheral blood mononuclear cells (hPBMCs); test: Cytotoxicity, MTT; format: cell-based
Method: as §1
Ten milliliters of fresh blood was mixed with 10 mL of PBS pH 7.20 in 50 mL conical tubes. Then, 10 mL of Ficoll® density gradient media were placed in 50 mL conical tubes, and then the blood/PBS solution was gently poured over without disturbing the interface. The mixture was centrifuged at RT and 400× g for 30 min with the brake off (Universal 32 R, Hettich Group, Kirchlengern, Westphalia, Germany), and the upper plasma phase was removed and discarded. The leukocyte phase was gently removed from the conical tube, placed in a new 50 mL conical tube, and density gradient media was removed in two washings with 25 mL of PBS pH 7.20 at RT and 400× g for 10 min. Cells were then resuspended in 3 mL of RPMI media. Subsequently, 10 µL of this suspension was mixed with 90 µL of Trypan blue in a 0.50 mL polypropylene vial. The cell count and cell viability were determined in a Neubauer counting chamber. Then, cells were suspended to 3 × 10^5 cells/mL, ensuring that cell viability remained above 98%. All peptides were diluted in RPMI media to final concentrations ranging between 1.56 and 200 µM. Subsequently, 20 µL of each peptide solution was added in triplicate into 96-well plates, along with 80 µL of fresh RPMI media. For negative and positive cytotoxicity controls, six wells received 20 µL of PBS and 30% v/v H2O2, respectively. Blank wells without cells were also included. Next, 100 µL of a cell suspension 3 × 10^5 cells/mL was added to each well, and the plates were incubated for 24 h at 37 °C in a 5% CO2 atmosphere (Heratherm, ThermoFisher Scientific, Waltham, MA, USA). After 24 h, plates were centrifuged at RT and 1000× g for 10 min (Sorvall Legend XFR, ThermoFisher Scientific, Waltham, MA, USA). Then, 180 µL of the supernatant was collected, and 28 µL of a 4 mg/mL sterile MTT solution was added. The plates were then incubated for 4 h at 37 °C in a 5% CO2 atmosphere (Heratherm, ThermoFisher Scientific, Waltham, MA, USA). After the second incubation, 130 µL of DMSO was added to each well and plates were agitated at 50 rpm. The solubilized formazan was then measured at 570 nm using a Multiskan SkyHigh spectrophotometer (ThermoFisher Scientific, Waltham, MA, USA). All peptides were evaluated in three independent assays and the viability percentages were calculated as follows: Viability %=1−AbsPEPTIDE−Median AbsBLANK/Median AbsH2O2−Median AbsBLANK×100

Substance: WKKIKKFF-NH2 [PvAMP66]
- HC50 (Hemolytic Concentration 50) ([1]; 10% v/v hRBC in PBS pH 7.20, 1 h 37 °C, hemoglobin at 420 nm, 1.56–200 µM, logistic regression, 95% CI in parentheses, three independent assays): 132.96 (118.82–151.21) µM
- hemolysis ([1]; human erythrocytes, highest concentration (200 µM), 1 h 37 °C): 60%
- CC50 (Cytotoxic Concentration 50) ([2]; hPBMCs in RPMI, 24 h 37 °C 5% CO2, MTT 570 nm, 1.56–200 µM, logistic regression, 95% CI in parentheses, ND = above evaluated range): 172.03 µM
- decrease in viability ([2]; hPBMCs, highest concentration (200 µM), 24 h, MTT): approximately 40%
- CC50/IC50 ([2]; selectivity index vs IC50 E. coli ATCC 25922): 4.49
- CC50/IC50 ([2]; selectivity index vs IC50 K. pneumoniae ATCC BAA-1705): 3.78
- CC50/IC50 ([2]; selectivity index vs IC50 MDR K. pneumoniae): 10.89
- CC50/IC50 ([2]; selectivity index vs IC50 P. aeruginosa ATCC 9027): 13.58
- CC50/IC50 ([2]; selectivity index vs IC50 S. aureus ATCC 29213): 6.24
